# Where a name gives a salt, the structure may show the parent alone.
# How the values were obtained:
# [1] = system: HCT116 cells and MKN45 cells; test: Test C: measurement of cell proliferation by 14C-thymidine pulse; assay type: cell-based; conditions: 14C-thymidine incorporation, 96 h of treatment; cell line not given
# Protocol: The cells are seeded into Cytostar 96-well plates in 180 μl for 4 hours at 37° C. and 5% CO2: HCT116 cells in a proportion of 2500 cells per well in DMEM medium+10% foetal calf serum+1% L-glutamine, and MKN45 cells in a proportion of 7500 cells per well in RPMI medium+10% foetal calf serum+1% L-glutamine. After these 4 hours of incubation, the products are added in 10 μl as a […] concentrated solution according to the dilution method mentioned for the ELISA. The products are tested at 10 concentrations in duplicate from 10 000 nM to 0.3 nM with an increment of 3.
# After treatment for 72 h, 10 μl of ^14C-thymidine at 10 μCi/ml are added so as to obtain 0.1 μCi per well. The ^14C-thymidine incorporation is measured on a Micro-Beta machine (Perkin-Elmer) after 24 hours of pulse and 96 h of treatment.
# All the steps of the assay are automated on BIOMEK 2000 or TECAN stations.
# MET [2] = target: T1, MET (Homo sapiens, UniProt P08581); test: Test B: inhibition of the autophosphorylation of MET, ELISA technique (pppY1230, 1234, 1235) in MKN45 cells; assay type: cell-based; parameters: endogenous in cells; host or cells: MKN45 cells; conditions: 1 h treatment, phosphoMET ELISA
# Protocol: B) Test B: Inhibition of the Autophosphorylation of Met; ELISA Technique (pppY1230, 1234, 1235) a) Cell lysates: MKN45 cells are seeded into 96-well plates (cell coat BD polylysine) at 20 000 cells/well in 200 μl of RPMI medium+10% FCS+1% L-glutamine. They are left to adhere for 24 hours in an incubator.
# The cells are treated the day after seeding with the products at 6 concentrations, in duplicate, for 1 h. At least 3 control wells are treated with the same final amount of DMSO.
# Product dilution: Stock at 10 mM in pure DMSO—range from 10 mM to 30 μM with an increment of 3 in pure DMSO—intermediate dilutions to 1/50 in culture medium and then removal of 10 μl added directly to the cells (200 μl): final range of 10 000 to 30 nM.
# At the end of the incubation, the supernatant is carefully removed and rinsing is performed with 200 μl of PBS. Next, 100 μl of lysis buffer are placed directly in the wells on ice and incubated at 4° C. for 30 minutes. Lysis buffer: 10 mM Tris HCl, pH 7.4, 100 mM NaCl, 1 mM EDTA, 1 mM EGTA, 1% Triton X-100, 10% glycerol, 0.1% SDS, 0.5% deoxycholate, 20 mM NaF, 2 mM Na3VO4, 1 mM PMSF and cocktail of antiproteases.
# The 100 μl of lysates are transferred into a V-bottomed polypropylene plate and the ELISA is performed immediately, or the plate is frozen at −80° C.
# 70 μl of kit dilution buffer+30 μL of cell lysate, or 30 μl of lysis buffer for the blanks, are added to each well of the kit plate. Incubation is carried out for 2 h with gentle agitation at ambient temperature.
# The wells are rinsed 4 times with 400 μl of kit washing buffer. Incubation is carried out with 100 μl of anti-phospho MET antibody for 1 hour at ambient temperature.
# The wells are rinsed 4 times with 400 μl of kit washing buffer. Incubation is carried out with 100 μl of anti-rabbit HRP antibody for 30 minutes at ambient temperature (except for the wells of chromogen alone).
# The wells are rinsed 4 times with 400 μl of kit washing buffer. 100 μL of chromogen are introduced and incubation is carried out for 30 minutes in the dark at ambient temperature.
# The reaction is stopped with 100 μl of stop solution. The plate is read without delay at […], 0.1 second on a Wallac Victor plate reader.
# Target sequence in this assay (P08581 25-1390): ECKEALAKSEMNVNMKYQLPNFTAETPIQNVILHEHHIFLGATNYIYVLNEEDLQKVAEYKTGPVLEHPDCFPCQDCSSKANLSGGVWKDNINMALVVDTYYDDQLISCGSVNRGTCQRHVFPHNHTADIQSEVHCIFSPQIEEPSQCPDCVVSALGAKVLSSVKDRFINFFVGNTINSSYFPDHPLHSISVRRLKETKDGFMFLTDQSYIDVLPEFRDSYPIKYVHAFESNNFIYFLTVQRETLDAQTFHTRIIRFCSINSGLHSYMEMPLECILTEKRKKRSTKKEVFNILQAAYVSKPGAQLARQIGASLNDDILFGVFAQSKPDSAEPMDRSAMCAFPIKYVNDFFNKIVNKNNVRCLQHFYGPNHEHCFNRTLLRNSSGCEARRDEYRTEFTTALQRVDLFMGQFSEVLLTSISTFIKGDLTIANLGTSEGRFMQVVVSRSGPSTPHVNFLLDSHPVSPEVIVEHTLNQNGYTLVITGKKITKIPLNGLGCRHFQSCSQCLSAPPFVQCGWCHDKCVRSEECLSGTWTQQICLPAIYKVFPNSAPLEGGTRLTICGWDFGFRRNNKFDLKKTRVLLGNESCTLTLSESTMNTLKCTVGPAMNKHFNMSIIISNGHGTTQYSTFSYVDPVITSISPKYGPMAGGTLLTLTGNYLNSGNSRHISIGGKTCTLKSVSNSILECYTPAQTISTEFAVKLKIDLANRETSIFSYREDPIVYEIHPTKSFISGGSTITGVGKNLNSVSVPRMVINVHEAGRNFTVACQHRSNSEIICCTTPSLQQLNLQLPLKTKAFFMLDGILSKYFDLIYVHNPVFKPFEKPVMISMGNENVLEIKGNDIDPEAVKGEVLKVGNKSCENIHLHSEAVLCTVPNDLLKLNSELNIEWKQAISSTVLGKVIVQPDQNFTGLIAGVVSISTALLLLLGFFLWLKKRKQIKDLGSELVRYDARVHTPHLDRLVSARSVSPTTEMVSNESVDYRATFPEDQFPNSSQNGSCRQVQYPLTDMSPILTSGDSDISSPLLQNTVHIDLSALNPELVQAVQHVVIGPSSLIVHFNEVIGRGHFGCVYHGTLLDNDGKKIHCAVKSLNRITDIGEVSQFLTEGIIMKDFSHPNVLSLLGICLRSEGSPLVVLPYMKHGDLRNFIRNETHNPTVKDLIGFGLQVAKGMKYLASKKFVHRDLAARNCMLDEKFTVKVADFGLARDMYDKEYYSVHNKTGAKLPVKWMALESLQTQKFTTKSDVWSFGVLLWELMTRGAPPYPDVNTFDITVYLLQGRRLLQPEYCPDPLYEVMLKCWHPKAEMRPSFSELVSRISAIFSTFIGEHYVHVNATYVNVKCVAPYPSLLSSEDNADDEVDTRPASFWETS
# MET [3] = target: T1, MET; test: Test A: HTRF MET assay in 96-well format; assay type: biochemical; parameters: The His-Tev-MET (956-1390) recombinant DNA in pFastBac (Invitrogen) is transfected into insect cells; His (N, cleaved yes); Tev cleavage site (N); made in house; host or cells: SF21 insect cells (baculovirus, pFastBac); conditions: MET 5 nM, 10 μM ATP
# Protocol: The His-Tev-MET (956-1390) recombinant DNA in pFastBac (Invitrogen) is transfected into insect cells and, after several viral amplification steps, the final baculovirus stock is tested for the expression of the protein of interest.
# After infection for 72 h at 27° C. with the recombinant virus, SF21 cell cultures are harvested by centrifugation and the cell pellets are stored at −80° C.
# The cell pellets are resuspended in the lysis buffer (buffer A [50 mM HEPES, pH 7.5, 250 mM NaCl, 10% glycerol, 1 mM TECP]; +cocktail of protease inhibitors, Roche Diagnostics, without EDTA, ref 1873580), stirred at 4° C. until the mixture is homogeneous, and then lysed mechanically using a “Dounce” type apparatus.
# After centrifugation, the lysis supernatant is incubated for 2 h at 4° C. with nickel chelate resin (His-Trap 6 Fast Flow™, GE HealthCare). After washing with 20 volumes of buffer A, the suspension is packed into a column, and the proteins are eluted with a gradient of buffer B (buffer A+290 mM imidazole).
# The fractions containing the protein of interest, for the purpose of electrophoretic analysis (SDS PAGE), are combined, concentrated by ultrafiltration (10 kDa cut-off) and injected onto an exclusion chromatography column (Superdex® 200, GE HealthCare) equilibrated in buffer A.
# After enzymatic cleavage of the histidine tag, the protein is reinjected onto a new IMAC nickel chelate chromatography column (His-Trap 6 Fast Flow™ GE HealthCare) equilibrated in buffer A. The fractions eluted with a gradient of buffer B and containing the protein of interest after electrophoresis (SDS PAGE) are finally combined and stored at −80° C.
# For the production of autophosphorylated protein, the previous fractions are incubated for 1 h at ambient temperature after the addition of 2 mM ATP, 2 mM MgCl2 and 4 mM Na3VO4. After the reaction has been stopped with 5 mM of EDTA, the reaction mixture is injected onto a HiPrep desalifying column (GE HealthCare) pre-equilibrated in buffer A+4 mM Na3VO4, and the fractions containing the protein of interest (SDS PAGE analysis) are combined and stored at −80° C. The degree of phosphorylation is verified by mass spectrometry (LC-MS) and by peptide mapping.
# MET at a final concentration of 5 nM is incubated in a final volume of 50 μl of enzymatic reaction in the presence of the test molecule (for a final concentration range of from 0.17 nM to 10 μM, 3% DMSO final concentration) in 10 mM MOPS buffer, pH 7.4, 1 mM DTT, 0.01% Tween 20. The reaction is initiated with the substrate solution to obtain final concentrations of 1 μg/ml poly-(GAT), 10 μM ATP and 5 mM MgCl2. After incubation for 10 min at ambient temperature, the reaction is stopped with a 30 μl mix so as to obtain a final solution of 50 mM Hepes, pH 7.5, 500 mM potassium fluoride, 0.1% BSA and 133 mM EDTA in the presence of 80 ng of streptavidin 61 SAXLB Cis-Bio Int. and 18 ng of anti-phosphotyrosine Mab PT66-Europium Cryptate per well. After incubation for 2 hours at ambient temperature, the reading is taken at 2 wavelengths, 620 nm and 665 nm, on a reader for the TRACE/HTRF technique, and the % inhibition is calculated from the 665/620 ratios.
# Target sequence in this assay (P08581 956-1390): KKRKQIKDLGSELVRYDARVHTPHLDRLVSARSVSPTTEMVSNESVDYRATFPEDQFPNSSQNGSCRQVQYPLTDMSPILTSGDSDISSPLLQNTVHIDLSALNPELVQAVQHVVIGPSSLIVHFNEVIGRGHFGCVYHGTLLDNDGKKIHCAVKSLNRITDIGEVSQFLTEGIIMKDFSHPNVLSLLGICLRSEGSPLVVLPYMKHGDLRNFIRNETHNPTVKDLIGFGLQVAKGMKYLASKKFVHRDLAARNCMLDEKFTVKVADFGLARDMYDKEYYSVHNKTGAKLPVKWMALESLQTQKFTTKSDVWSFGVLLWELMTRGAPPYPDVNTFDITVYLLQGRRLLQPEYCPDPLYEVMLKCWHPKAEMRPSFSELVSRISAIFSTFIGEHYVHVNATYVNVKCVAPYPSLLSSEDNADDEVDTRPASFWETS
melting point [°C],IC50 [1] [nM],IC50 (MET [2]) [nM],IC50 (MET [3]) [nM],Structure (SMILES)
230,–,–,–,"O=C(Nc1nc2ccc(Sc3cnc4ccc(-c5cnn(C6CCNCC6)c5)cn34)cc2s1)C1CC1 (as salt: hydrochloride) [Example 12, N-[6-({6-[1-(piperidin-4-yl)1H-pyrazol-4-yl]imidazo[1,2-a]pyridin-3-yl}sulphanyl)-1,3-benzothiazol-2-yl]cyclopropanecarboxamide]"
258,< 1000,> 500,< 100,"Nc1nc2ccc(Sc3cnc4ccc(-c5ccc(F)cc5)cn34)cc2s1 [Example 2, 6-{[6-(4-fluorophenyl)imidazo[1,2-a]pyridin-3-yl]sulphanyl}-1,3-benzothiazol-2-amine]"
265,< 1000,< 100,< 100,"O=C(Nc1nc2ccc(Sc3cnc4ccc(-c5ccc(F)cc5)cn34)cc2s1)C1CC1 [Example 3, N-(6-{[6-(4-fluorophenyl)imidazo[1,2-a]pyridin-3-yl]sulphanyl}-1,3-benzothiazol-2-yl)cyclopropanecarboxamide]"
–,< 1000,< 100,< 100,"CC(=O)Nc1nc2ccc(Sc3cnc4ccc(-c5ccc(F)cc5)cn34)cc2s1 [Example 4, N-(6-{[6-(4-fluorophenyl)imidazo[1,2-a]pyridin-3-yl]sulphanyl}-1,3-benzothiazol-2-yl)acetamide]"
> 260,< 1000,< 100,< 100,"COCCNC(=O)Nc1nc2ccc(Sc3cnc4ccc(-c5ccc(F)cc5)cn34)cc2s1 [Example 5, 1-(6-{[6-(4-fluorophenyl)imidazo[1,2-a]pyridin-3-yl]sulphanyl}-1,3-benzothiazol-2-yl)-3-(2-methoxyethyl)urea]"
–,< 1000,< 100,< 100,"O=C(NCCN1CCOCC1)Nc1nc2ccc(Sc3cnc4ccc(-c5ccc(F)cc5)cn34)cc2s1 [Example 6, 1-(6-{[6-(4-fluorophenyl)imidazo[1,2-a]pyridin-3-yl]sulphanyl}-1,3-benzothiazol-2-yl)-3-[2-(morpholin-4-yl)ethyl]urea]"
–,< 1000,< 100,< 100,"Cn1cc(-c2ccc3ncc(Sc4ccc5nc(NC(=O)C6CC6)sc5c4)n3c2)cn1 [Example 7, N-(6-{[6-(1-methyl-1H-pyrazol-4-yl)imidazo[1,2-a]pyridin-3-yl]sulphanyl}-1,3-benzothiazol-2-yl)cyclopropanecarboxamide]"
–,< 1000,< 100,< 100,"O=C(Nc1nc2ccc(Sc3cnc4ccc(-c5cn[nH]c5)cn34)cc2s1)C1CC1 [Example 8, N-(6-{[6-(1H-pyrazol-4-yl)imidazo[1,2-a]pyridin-3-yl]sulphanyl}-1,3-benzothiazol-2-yl)cyclopropanecarboxamide]"
> 260,< 1000,< 100,< 100,"O=C(Nc1nc2ccc(Sc3cnc4ccc(-c5cccc(F)c5)cn34)cc2s1)C1CC1 [Example 9, N-(6-{[6-(3-fluorophenyl)imidazo[1,2-a]pyridin-3-yl]sulphanyl}-1,3-benzothiazol-2-yl)cyclopropanecarboxamide]"
> 260,< 1000,< 100,< 100,"Cc1ccc(-c2ccc3ncc(Sc4ccc5nc(NC(=O)C6CC6)sc5c4)n3c2)cc1F [Example 10, N-(6-{[6-((3-fluoro-4-methyl)phenyl)imidazo[1,2-a]pyridin-3-yl]sulphanyl}-1,3-benzothiazol-2-yl)cyclopropanecarboxamide]"
247,< 1000,< 100,< 100,"CC(C)(C)OC(=O)N1CCC(n2cc(-c3ccc4ncc(Sc5ccc6nc(NC(=O)C7CC7)sc6c5)n4c3)cn2)CC1 [Example 11, tert-butyl 4-{4-[3-({2-[(cyclopropylcarbonyl)amino]-1,3-benzothiazol-6-yl}sulphanyl)imidazo[1,2-a]pyridin-6-yl]-1H-pyrazol-1-yl}piperidine-1-carboxylate]"
–,< 1000,< 100,< 100,"O=C(Nc1nc2ccc(Sc3cnc4ccc(-c5cnn(C6CCNCC6)c5)cn34)cc2s1)C1CC1 [Example 12, N-[6-({6-[1-(piperidin-4-yl)1H-pyrazol-4-yl]imidazo[1,2-a]pyridin-3-yl}sulphanyl)-1,3-benzothiazol-2-yl]cyclopropanecarboxamide]"

Structure (SMILES),melting point [°C],IC50 [1] [nM],IC50 (MET [2]) [nM],IC50 (MET [3]) [nM]
"O=C(Nc1nc2ccc(Sc3cnc4ccccn34)cc2s1)C1CC1 [Example 1, N-{[6-(imidazo[1,2-a]pyridin-3-yl)sulphanyl]-1,3-benzothiazol-2-yl}cyclopropanecarboxamide]",–,< 1000,< 100,< 100

# — patent US20110257171A1, “NOVEL IMIDAZO[1,2-A]PYRIDINE DERIVATIVES, METHOD FOR THE PREPARATION THEREOF, USE THEREOF AS MEDICAMENTS, PHARMACEUTICAL COMPOSITIONS AND NOVEL USE IN PARTICULAR AS MET INHIBITORS” (SANOFI-AVENTIS, priority 2008, published 2011)
